Laboratory results: patent US9392789B2, “Compositions of dibromomalonamide and their use as biocides” (Dow Global Technologies LLC, priority 2009, dated 2016)
Several values for one entry are separate records, joined by “and”; a condition that tells them apart may be missing. Identical values can stand only once.

Test system: mixture of Pseudomonas aeruginosa, Klebsiella pneumoniae, Staphylococcus aureus, and Bacillus subtilis
Test: Growth inhibition assay (microtiter plate-based synergy assay)
Assay type: cell-based
Conditions: 24 h; for I90 value: single active, concentration for ~90% inhibition of growth
Description: Growth Inhibition Assay. […] Regardless of the mechanism of action, the impact of a biocide (or combination of biocides) can be measured over time on the basis of an increase in the size of the community.
The assay measures the efficacy of one or more biocides at preventing growth of a consortium of bacteria in a dilute mineral salts medium. The medium contains (in mg/l) the following components: FeCl3.6H2O (1); CaCl2.2H2O (10); MgSO4.7H2O (22.5); (NH4)2SO4 (40); KH2PO4 (10); K2HPO4 (25.5); Yeast Extract (10); and glucose (100). After all components are added to deionized water, the pH of the medium is adjusted to 7.5. Following filter sterilization, aliquots are dispensed in 100 ul quantities to sterile microtiter plate wells. Dilutions of 2,2-dibromomalonamide (“DBMAL”) and/or “Biocide B” are then added to the microtiter plate. After preparing the combinations of actives as illustrated below, each well is inoculated with 100 μl of a cell suspension containing ca. 1×10^6 cells per milliliter of a mixture of Pseudomonas aeruginosa, Klebsiella pneumoniae, Staphylococcus aureus, and Bacillus subtilis. The final total volume of medium in each well is 300 μl. Once prepared as described herein, the concentration of each active ranges from 25 ppm to 0.195 ppm as illustrated in Table 1. The resulting matrix allows testing of eight concentrations of each active and 64 combinations of actives in the ratios (of actives).
Controls (not shown) contain the medium with no biocide added. After preparing the combinations of actives as illustrated above, each well is inoculated with 100 μl of a cell suspension containing ca. 1×10^6 cells per milliliter of a mixture of Pseudomonas aeruginosa, Klebsiella pneumoniae, Staphylococcus aureus, and Bacillus subtilis. The final total volume of medium in each well is 300 μl.
Immediately after the microtiter plates are prepared, the optical density (OD) readings for each well is measured at 580 nm and the plates are then incubated at 37° C. for 24 hr. After the incubation period, the plates are gently agitated before OD580 values are collected. The OD580 values at T0 are subtracted from T24 values to determine the total amount of growth (or lack thereof) that occurs. These values are used to calculate the percent inhibition of growth caused by the presence of each biocide and each of the 64 combinations. A 90% inhibition of growth is used as a threshold for calculating synergy index (SI) values with the following equation: Synergy Index=MDBMAL/CDBMAL+MB/CB
where • CDBMAL: Concentration of DBMAL required to inhibit ˜90% of bacterial growth when used alone • CB: Concentration of biocide (B) required to inhibit ˜90% of bacterial growth when used alone. • MDBMAL: Concentration of DBMAL required to inhibit ˜90% of bacterial growth when used in combination with biocide (B). • MB: Concentration of biocide (B) required to inhibit ˜90% of bacterial growth when used in combination with DBMAL The SI values are interpreted as follows: • SI<1: Synergistic combination • SI=1: Additive combination • SI>1: Antagonistic combination
In the Examples below, the amounts of biocides in the solution are measured in mg per liter of solution (mg/l). Since solution densities are approximately 1.00, the mg/l measurement corresponds to weight ppm. Both units may therefore be used interchangeably in the Examples.

Row | SMILES | % Inhibition of growth (single active at 0.19 mg/l) | % Inhibition of growth (single active at 0.39 mg/l) | % Inhibition of growth (single active at 0.78 mg/l) | % Inhibition of growth (single active at 1.56 mg/l) | % Inhibition of growth (single active at 3.13 mg/l) | % Inhibition of growth (single active at 6.25 mg/l) | % Inhibition of growth (single active at 12.5 mg/l) | % Inhibition of growth (single active at 25.0 mg/l) | inhibition at 12.5 µg/mL (single active at 12.5 mg/l) | inhibition at 25 µg/mL (single active at 25.0 mg/l) | I90 value | inhibition at 7.81 µg/mL (single active at 7.81 mg/l) | inhibition at 15.63 µg/mL (single active at 15.63 mg/l) | inhibition at 31.25 µg/mL (single active at 31.25 mg/l) | inhibition at 62.5 µg/mL (single active at 62.5 mg/l) | inhibition at 125 µg/mL (single active at 125 mg/l) | inhibition at 250 µg/mL (single active at 250 mg/l) | inhibition at 500 µg/mL (single active at 500 mg/l) | inhibition at 1000 µg/mL (single active at 1,000 mg/l)
1 | CC1(C)C(=O)N(Cl)C(=O)N1Br [BCDMH, bromochlorodimethylhydantoin] | 0% | 0% | 5% | 0% | 2% | 100% | 98% | 99% | – | – | – | – | – | – | – | – | – | – | –
2 | [O][Cl+][O-] [ClO2, chlorine dioxide] | 12% | 26% | 35% | 63% | 75% | 99% | 100% | 98% | – | – | – | – | – | – | – | – | – | – | –
3 | NC(=O)C(Br)(Br)C(N)=O [DBMAL, 2,2-dibromomalonamide] | – | 4% and 0% and 5% and 8% and 2% | – | – | – | 9% | 99% and 92% | – | 100% | 98% | 12.5 mg/L | – | – | – | – | – | – | – | –
4 | O=c1nc([O-])n(Cl)c(=O)n1Cl.[Na+] [DCI, dichloroisocyanurate] | 0% | 0% | 0% | 98% | 100% | 97% | 100% | 100% | – | – | – | – | – | – | – | – | – | – | –
5 | OO [H2O2, hydrogen peroxide] | – | – | – | – | – | – | – | – | – | – | – | 5% | 2% | 0% | 12% | 6% | 1% | 100% | 89%
6 | OBr [HOBr, hypobromous acid] | 0% | 0% | 0% | 0% | 22% | 57% | 99% | 100% | – | – | – | – | – | – | – | – | – | – | –
7 | NCl [NH2Cl, monochloramine] | 4% | 0% | 2% | 97% | 96% | 94% | 97% | 95% | – | – | 1.56 mg/L | – | – | – | – | – | – | – | –
8 | O=c1n(Cl)c(=O)n(Cl)c(=O)n1Cl [TCI, trichloroisocyanurate] | 0% | 0% | 0% | 97% | 96% | 99% | 97% | 94% | – | – | – | – | – | – | – | – | – | – | –
